ChEMBL document CHEMBL1909046, “DrugMatrix in vitro pharmacology data”

What was measured:
[1] = biological target: Mitogen-activated protein kinase 1 (Homo sapiens, UniProt P28482); assay: DRUGMATRIX: Protein Serine/Threonine Kinase, ERK2 enzyme inhibition (substrate: Myelin Basic Protein); design: species or system Escherichia coli; settings: Not Active = under 50% inhibition at 10 µM
[2] = DRUGMATRIX: Glutamate, Kainate radioligand binding (ligand: [3H] Kainic acid); format: cell membranes, Rattus norvegicus, Wistar, Brain, Membrane; settings: Not Active = under 50% inhibition at 10 µM
Histamine H2 receptor = Histamine H2 receptor (Homo sapiens, UniProt P25021); format: cell membranes, CHO-K1, Membrane; settings: cho-k1; note: in other assays of this panel Not Active means under 50% inhibition at 10 µM
[3] = DRUGMATRIX: Glutamate, AMPA radioligand binding (ligand: [3H] AMPA); format: cell membranes, Rattus norvegicus, Wistar, Cerebral cortex, Membrane; settings: Not Active = under 50% inhibition at 10 µM
[4] = DRUGMATRIX: GABAA, Flunitrazepam, Central radioligand binding (ligand: [3H] Flunitrazepam); format: cell membranes, Rattus norvegicus, Wistar, Brain, Membrane; settings: Not Active = under 50% inhibition at 10 µM
[5] = biological target: C-C chemokine receptor type 5 (Homo sapiens, UniProt P51681); format: cell membranes, Membrane; settings: hek293; note: in other assays of this panel Not Active means under 50% inhibition at 10 µM
[6] = DRUGMATRIX: Platelet-Derived Growth Factor (PDGF) radioligand binding (ligand: [125I] PDGF); format: cell-based; settings: nih3t3; Not Active = under 50% inhibition at 10 µM

Sequence of C-C chemokine receptor type 5 (P51681 whole entry): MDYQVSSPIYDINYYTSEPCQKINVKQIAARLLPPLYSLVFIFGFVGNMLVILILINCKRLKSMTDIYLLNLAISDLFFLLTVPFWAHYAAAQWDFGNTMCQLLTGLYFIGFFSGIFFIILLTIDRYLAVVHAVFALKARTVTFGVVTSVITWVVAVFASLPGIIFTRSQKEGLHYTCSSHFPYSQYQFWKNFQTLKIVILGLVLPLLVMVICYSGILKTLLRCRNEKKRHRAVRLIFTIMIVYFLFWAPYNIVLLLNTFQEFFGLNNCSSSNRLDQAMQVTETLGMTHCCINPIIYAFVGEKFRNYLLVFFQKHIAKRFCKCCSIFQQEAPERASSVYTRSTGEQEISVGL
Sequence of Histamine H2 receptor (P25021 whole entry): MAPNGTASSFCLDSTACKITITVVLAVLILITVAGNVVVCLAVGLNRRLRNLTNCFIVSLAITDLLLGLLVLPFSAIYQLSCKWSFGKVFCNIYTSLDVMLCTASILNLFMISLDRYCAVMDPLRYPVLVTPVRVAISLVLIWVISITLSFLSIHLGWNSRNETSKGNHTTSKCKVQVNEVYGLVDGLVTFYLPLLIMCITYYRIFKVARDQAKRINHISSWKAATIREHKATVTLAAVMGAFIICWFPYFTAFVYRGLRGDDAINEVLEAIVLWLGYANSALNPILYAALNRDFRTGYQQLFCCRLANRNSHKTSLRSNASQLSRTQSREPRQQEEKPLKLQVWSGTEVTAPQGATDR
Sequence of Mitogen-activated protein kinase 1 (P28482 whole entry): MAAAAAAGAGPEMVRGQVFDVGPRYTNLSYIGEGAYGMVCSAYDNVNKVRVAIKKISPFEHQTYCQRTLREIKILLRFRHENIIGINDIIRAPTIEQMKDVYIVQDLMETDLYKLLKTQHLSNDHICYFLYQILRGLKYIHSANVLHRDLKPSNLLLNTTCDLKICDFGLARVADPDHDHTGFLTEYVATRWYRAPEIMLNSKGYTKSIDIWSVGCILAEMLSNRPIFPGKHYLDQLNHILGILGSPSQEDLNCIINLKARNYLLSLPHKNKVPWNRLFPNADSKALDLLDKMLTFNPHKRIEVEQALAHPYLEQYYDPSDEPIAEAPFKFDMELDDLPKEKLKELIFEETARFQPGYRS

O=C(O)CC(O)(CC(=O)O)C(=O)O [CITRIC ACID]
Not Active: IC50 [1] | IC50 [2] | Ki [2] | IC50 (Histamine H2 receptor) | IC50 [3] | Ki [3] | IC50 [4] | Ki [4] | IC50 [5] | IC50 [6] | Ki [6]

CC(C)NCC(O)c1ccccc1Cl (stereo not given) [CLORPRENALINE]
Not Active: IC50 [1] | IC50 [2] | Ki [2] | IC50 (Histamine H2 receptor) | IC50 [3] | Ki [3] | IC50 [4] | Ki [4] | IC50 [5] | IC50 [6] | Ki [6]

CN1CCN(C(c2ccccc2)c2ccccc2)CC1 [CYCLIZINE]
Not Active: IC50 [1] | IC50 [2] | Ki [2] | IC50 (Histamine H2 receptor) | IC50 [3] | Ki [3] | IC50 [4] | Ki [4] | IC50 [5] | IC50 [6] | Ki [6]

CN1C[C@@H]2C[C@H]1CN2c1cc2c(cc1F)c(=O)c(C(=O)O)cn2C1CC1 [DANOFLOXACIN]
Not Active: IC50 [1] | IC50 [2] | Ki [2] | IC50 (Histamine H2 receptor) | IC50 [3] | Ki [3] | IC50 [4] | Ki [4] | IC50 [5] | IC50 [6] | Ki [6]

COc1cccc2c1C(=O)c1c(O)c3c(c(O)c1C2=O)C[C@@](O)(C(C)=O)C[C@@H]3O[C@H]1C[C@H](N)[C@H](O)[C@H](C)O1 [DAUNORUBICIN]
Not Active: IC50 [1] | IC50 [2] | Ki [2] | IC50 (Histamine H2 receptor) | IC50 [3] | Ki [3] | IC50 [4] | Ki [4] | IC50 [5] | IC50 [6] | Ki [6]

O=C(O)c1cc(-c2ccc(F)cc2F)ccc1O [DIFLUNISAL]
Not Active: IC50 [1] | IC50 [2] | Ki [2] | IC50 (Histamine H2 receptor) | IC50 [3] | Ki [3] | IC50 [4] | Ki [4] | IC50 [5] | IC50 [6] | Ki [6]

C[S+](C)[O-] [DIMETHYL SULFOXIDE]
Not Active: IC50 [1] | IC50 [2] | Ki [2] | IC50 (Histamine H2 receptor) | IC50 [3] | Ki [3] | IC50 [4] | Ki [4] | IC50 [5] | IC50 [6] | Ki [6]

CC1=NN(c2ccccc2)C(=O)C1 [EDARAVONE]
Not Active: IC50 [1] | IC50 [2] | Ki [2] | IC50 (Histamine H2 receptor) | IC50 [3] | Ki [3] | IC50 [4] | Ki [4] | IC50 [5] | IC50 [6] | Ki [6]

CC(C)C[C@H]1C(=O)N2CCC[C@H]2[C@]2(O)O[C@](NC(=O)[C@@H]3C=C4c5cccc6[nH]cc(c56)C[C@H]4N(C)C3)(C(C)C)C(=O)N12 [ERGOCRYPTINE]
Not Active: IC50 [1] | IC50 [2] | Ki [2] | IC50 (Histamine H2 receptor) | IC50 [3] | Ki [3] | IC50 [4] | Ki [4] | IC50 [5] | IC50 [6] | Ki [6]

C[C@]12CC[C@@H]3c4ccc(O)cc4CC[C@H]3[C@@H]1C[C@@H](O)[C@@H]2O [ESTRIOL]
Not Active: IC50 [1] | IC50 [2] | Ki [2] | IC50 (Histamine H2 receptor) | IC50 [3] | Ki [3] | IC50 [4] | Ki [4] | IC50 [5] | IC50 [6] | Ki [6]

C#C[C@]1(O)CC[C@H]2[C@@H]3CCC4=CC(=O)CC[C@]4(C)[C@H]3CC[C@@]21C [ETHISTERONE]
Not Active: IC50 [1] | IC50 [2] | Ki [2] | IC50 (Histamine H2 receptor) | IC50 [3] | Ki [3] | IC50 [4] | Ki [4] | IC50 [5] | IC50 [6] | Ki [6]

CC(O)(P(=O)(O)O)P(=O)(O)O [ETIDRONIC ACID]
Not Active: IC50 [1] | IC50 [2] | Ki [2] | IC50 (Histamine H2 receptor) | IC50 [3] | Ki [3] | IC50 [4] | Ki [4] | IC50 [5] | IC50 [6] | Ki [6]

CC(C)(C(=O)O)c1ccc(C(O)CCCN2CCC(C(O)(c3ccccc3)c3ccccc3)CC2)cc1 (stereo not given) [FEXOFENADINE]
Not Active: IC50 [1] | IC50 [2] | Ki [2] | IC50 (Histamine H2 receptor) | IC50 [3] | Ki [3] | IC50 [4] | Ki [4] | IC50 [5] | IC50 [6] | Ki [6]

CN1CCN(c2c(F)cc3c(=O)c(C(=O)O)cn(CCF)c3c2F)CC1 [FLEROXACIN]
Not Active: IC50 [1] | IC50 [2] | Ki [2] | IC50 (Histamine H2 receptor) | IC50 [3] | Ki [3] | IC50 [4] | Ki [4] | IC50 [5] | IC50 [6] | Ki [6]

O=c1[nH]c(=O)n([C@H]2C[C@H](O)[C@@H](CO)O2)cc1F [FLOXURIDINE]
Not Active: IC50 [1] | IC50 [2] | Ki [2] | IC50 (Histamine H2 receptor) | IC50 [3] | Ki [3] | IC50 [4] | Ki [4] | IC50 [5] | IC50 [6] | Ki [6]

COC(=O)Nc1nc2cc(C(=O)c3ccc(F)cc3)ccc2[nH]1 [FLUBENDAZOLE]
Not Active: IC50 [1] | IC50 [2] | Ki [2] | IC50 (Histamine H2 receptor) | IC50 [3] | Ki [3] | IC50 [4] | Ki [4] | IC50 [5] | IC50 [6] | Ki [6]

CC(=O)OCC(=O)[C@@]1(O)CC[C@H]2[C@@H]3CCC4=CC(=O)CC[C@]4(C)[C@@]3(F)[C@@H](O)C[C@@]21C [FLUDROCORTISONE ACETATE]
Not Active: IC50 [1] | IC50 [2] | Ki [2] | IC50 (Histamine H2 receptor) | IC50 [3] | Ki [3] | IC50 [4] | Ki [4] | IC50 [5] | IC50 [6] | Ki [6]

CCOC(=O)c1ncn2c1CN(C)C(=O)c1cc(F)ccc1-2 [FLUMAZENIL]
Not Active: IC50 [1] | IC50 [2] | Ki [2] | IC50 (Histamine H2 receptor) | IC50 [3] | Ki [3] | IC50 [5] | IC50 [6] | Ki [6]
3.87 nM: IC50 ([4]; read-out: IC50)
3.15 nM: Ki ([4]; read-out: Ki)

CC(=O)OCC(=O)[C@@]12OC(C)(C)O[C@@H]1C[C@H]1[C@@H]3C[C@H](F)C4=CC(=O)C=C[C@]4(C)[C@@]3(F)[C@@H](O)C[C@@]12C [FLUOCINONIDE]
Not Active: IC50 [1] | IC50 [2] | Ki [2] | IC50 (Histamine H2 receptor) | IC50 [3] | Ki [3] | IC50 [4] | Ki [4] | IC50 [5] | IC50 [6] | Ki [6]

O=C(O)P(=O)(O)O [FOSCARNET]
Not Active: IC50 [1] | IC50 [2] | Ki [2] | IC50 (Histamine H2 receptor) | IC50 [3] | Ki [3] | IC50 [4] | Ki [4] | IC50 [5] | IC50 [6] | Ki [6]
